Measured values reported in patent US8771973B2, “Methods for treating bleeding disorders using sulfated polysaccharides” (Baxter Healthcare S.A., priority 2004, dated 2014).
Marks after values point to notes of the source that are not given here.

Columns and labels:
Hem-A mice [1] = experiment: Second fucoidan study, fucoidan +/- FVIII, survival of Hem-A mice after tail vein transection; type: in vivo; conditions: fucoidan 0.1 mg/kg s.c. twice daily 4.5 days, FVIII 1.25% reconstitution 2 hours prior
Procedure: In a second study with fucoidan, combination therapy potential with factor VIII was evaluated. This study was performed as described above, except on the morning of the fifth day, mice received an intravenous bolus dose of 53 mU/mouse FVIII (about 1.25% of the normal level of FVIII) in a tail vein far up near the body. As before, the lateral tail vein, and not the artery, was transected 2 hours later at the region corresponding to a diameter of about 2.7 mm. […] Survival and clinical observations were recorded for 20-24 hours.

rabbits = conditions: intravenously at 10 mg/kg; cited from earlier work
Hem-A mice [2] = experiment: First fucoidan study, survival of Hem-A mice after bleeding test; type: in vivo; conditions: vehicle 1/6
Procedure: Given the improved potency and magnitude of efficacy of fucoidan relative to PPS in some of the clotting assays described above, additional studies were performed in Hem-A mice with fucoidan. In the first study with fucoidan, nearly the same regimen as described for PPS was adopted, but with slightly different dose levels. Hem-A male mice were administered fucoidan at a dose of 0.1 or 1.0 mg/kg or saline subcutaneously twice daily for 4 days. On the morning of the 5th day, mice received a doubled dose of fucoidan prior to the bleeding test. Survival and animal behavior were evaluated for mice treated with fucoidan compared to vehicle controls.
In the first study, treatment of mice with fucoidan at a dose of 0.1 mg/kg appeared to be more efficacious than treatment at a dose of 1.0 mg/kg (survival at about 10 hours was 1/6 for vehicle, 4/6 for 0.1 mg/kg, and 3/6 for 1.0 mg/kg).

TFPI = target: T1, TFPI (Homo sapiens, UniProt P10646); experiment: dPT assay, inhibition of TFPI activity in Hem-B plasma, TFPI preincubated with NASP; type: biochemical; conditions: Hem-B + TFPI, plasma alone 46, + TFPI 101 seconds
T1 construct: purchased American Diagnostica (Stamford, Conn.)
T1 sequence (P10646 29-304): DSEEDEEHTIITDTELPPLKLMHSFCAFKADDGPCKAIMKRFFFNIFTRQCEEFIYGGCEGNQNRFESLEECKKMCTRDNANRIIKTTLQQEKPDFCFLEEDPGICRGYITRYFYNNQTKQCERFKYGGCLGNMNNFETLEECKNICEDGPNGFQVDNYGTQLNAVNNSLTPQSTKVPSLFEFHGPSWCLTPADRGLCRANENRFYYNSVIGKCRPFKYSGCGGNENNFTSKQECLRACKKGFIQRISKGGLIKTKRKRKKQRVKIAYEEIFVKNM
Procedure: (§1) The dPT assay used was a modified standard clinical PT assay (Nordfang et al. (1991) Thromb Haemost 66:464-467; Welsch et al. (1991) Thrombosis Research 64: 213-222). SIMPLASTIN EXCEL thromboplastin reagent (Organon Teknika) was reconstituted with the manufacturer's diluent and further diluted 1:100 in 0.9% saline. The thromboplastin reagent, 25 mM CaCl2, and plasma samples were pre-warmed to 37° C. before initiating the assay. 100 μl of thawed plasma was aliquoted into microcentrifuge tubes. […] 100 μl of the diluted thromboplastin reagent and 100 μl of 25 mM CaCl2 were added to fibrin cups (Fisher) prewarmed to 37° C. 100 μl of plasma (normal or hemophilic) containing the test agent or saline control was added to the fibrin cups containing the thromboplastin reagent and CaCl2 to initiate clotting. The time for plasma clotting was measured with a BBL FIBROSYSTEM fibrometer.
Inhibition of TFPI activity by NASPs was assessed in dPT clotting assays with normal or hemophilic plasma and added recombinant TFPI. Diluted recombinant TFPI was preincubated with NASPs for 5 minutes at room temperature before plasma was added. After addition of plasma, the mixture was incubated for an additional 25 minutes followed by dPT initiation.
The acceleration of plasma clotting by the NASPs in the presence of TFPI was also tested in Hem-B and normal plasma.

Hem-A plasma = experiment: dPT assay, Hem-A plasma in absence of exogenous TFPI; type: biochemical, human; conditions: Hem-A, no exogenous TFPI, no NASP 69 seconds
Procedure: as §1
The ability of NASPs to accelerate clotting of factor-deficient plasma in the absence of TFPI supplementation was also tested in dPT assays. A procoagulant response, if observed, may be related to neutralization of endogenous TFPI activity, which is present in human plasma at approximately 100 ng/ml (Nordfang et al., supra), largely associated with lipoprotein or platelets (Broze et al. (1992) Semin. Hematol. 29:159-169; Broze et al. (2003) J. Thromb. Haemost. 1:1671-1675).
The ability of NASPs to accelerate clotting of Hem-A plasma in the absence of exogenous TFPI was tested. Fucoidan or PPS were titrated into Hem A plasma and dPT assays were performed. Additionally, the dose-response to factor VIIa was analyzed as a positive control for amplifying extrinsic pathway activation.

rats = conditions: subcutaneously; cited from earlier work
Hem-B mice = experiment: dPT clotting time of blood samples from Hem-B mice treated with PPS; type: in vivo; design: unit not given here
Procedure: The efficacy of PPS in improving clotting in Hem-B mice was further tested in dPT assays. All mice were bled prior to the study to establish baseline (pretest) clotting times. Mice (14 weeks old) were treated subcutaneously twice a day with PPS for 4.5 days at the following doses: 2, 0.3 and 0.06 mg/kg in a volume of 250 μl. Mice were bled after 4.5 days, and clotting times were determined from collected blood samples.

Substance	% Survival 9 hr (Hem-A mice [1]; 9 hr after tail vein incision, vehicle 21)	% Survival 20 hr (Hem-A mice [1]; 20 hr after tail vein incision, vehicle 7)	tolerability (rabbits)	survival at about 10 hours (Hem-A mice [2]; 0.1 mg/kg s.c. twice daily)	survival at about 10 hours (Hem-A mice [2]; 1.0 mg/kg s.c. twice daily)	clotting time, dPT (TFPI; 0.16 nM)	clotting time, dPT (TFPI; 0.8 nM)	clotting time, dPT (TFPI; 4 nM)	clotting time, dPT (TFPI; 20 nM)	clotting time, dPT (TFPI; 100 nM)	clotting time, dPT (TFPI; 500 nM)	clotting time, dPT (Hem-A plasma; 0.16 nM)	clotting time, dPT (Hem-A plasma; 0.8 nM)	clotting time, dPT (Hem-A plasma; 4 nM)	clotting time, dPT (Hem-A plasma; 20 nM)	clotting time, dPT (Hem-A plasma; 100 nM)	doses required to prolong clotting (rats)	Mean clotting time at 4.5 days (Hem-B mice; 0.06 mg/kg s.c. twice a day)	Mean clotting time at 4.5 days (Hem-B mice; 0.3 mg/kg s.c. twice a day)	Mean clotting time at 4.5 days (Hem-B mice; 2.0 mg/kg s.c. twice a day)
Fucoidan	61 * %	38 ^+ %	well-tolerated	4/6	3/6	108 s	95 s	80 s	54 s	50 s	60 s	70 s	68 s	63 s	~55 s	56 s				
Pentosan Polysulphate Sodium [PPS]						106 s	90 s	82 s	65 s	52 s	56 s	69 s	68 s	66 s	62 s	60 s	> 5 mg/kg	37	38	44
